In paper PMC6017924, “Mycobacterium tuberculosis H37Rv LpqG Protein Peptides Can Inhibit Mycobacterial Entry through Specific Interactions” (Molecules : A Journal of Synthetic Chemistry and Natural …, 2018):
Where no end group is shown, it is not given here.

Tests used:
[1] = tested on: A549 cells; assay type: cell-based; settings: MTT, 20 and 200 µM peptide in PBS, 2 h, 5 × 10^4 cells/well; data not shown
Method: (§1) An MTT cell viability assay was used for evaluating LpqG peptides’ cytotoxic effect; it involved placing 5 × 10^4 cells/well for 2 h with 20 and 200 µM each peptide in PBS, using the afore-mentioned incubation conditions. Triton X-100 was used as cytotoxicity control; 10 µL MTT were then added for 12 h. The resulting formazan crystals were dissolved in SDS and absorbance read at 570 nm.

[2] = tested on: U937 cells; assay type: cell-based; settings: MTT, 20 and 200 µM peptide in PBS, 2 h, 5 × 10^4 cells/well; data not shown
Method: as §1

## SGCDSHNSGSLGADPRQVTVY [compound 16661]
[1]
  cytotoxicity on A549 cells: 4%
[2]
  cytotoxic effect on U937 cells: without having a cytotoxic effect
